We go through four molecules from ChEMBL document CHEMBL5465560, “Selectivity Literature for EUbOPEN Chemogenomic Library” (2024).

Experiment [1] has as its target T1, Serine/threonine-protein kinase TAO1 (Homo sapiens) (UniProt Q7L7X3).
T1 sequence (whole entry): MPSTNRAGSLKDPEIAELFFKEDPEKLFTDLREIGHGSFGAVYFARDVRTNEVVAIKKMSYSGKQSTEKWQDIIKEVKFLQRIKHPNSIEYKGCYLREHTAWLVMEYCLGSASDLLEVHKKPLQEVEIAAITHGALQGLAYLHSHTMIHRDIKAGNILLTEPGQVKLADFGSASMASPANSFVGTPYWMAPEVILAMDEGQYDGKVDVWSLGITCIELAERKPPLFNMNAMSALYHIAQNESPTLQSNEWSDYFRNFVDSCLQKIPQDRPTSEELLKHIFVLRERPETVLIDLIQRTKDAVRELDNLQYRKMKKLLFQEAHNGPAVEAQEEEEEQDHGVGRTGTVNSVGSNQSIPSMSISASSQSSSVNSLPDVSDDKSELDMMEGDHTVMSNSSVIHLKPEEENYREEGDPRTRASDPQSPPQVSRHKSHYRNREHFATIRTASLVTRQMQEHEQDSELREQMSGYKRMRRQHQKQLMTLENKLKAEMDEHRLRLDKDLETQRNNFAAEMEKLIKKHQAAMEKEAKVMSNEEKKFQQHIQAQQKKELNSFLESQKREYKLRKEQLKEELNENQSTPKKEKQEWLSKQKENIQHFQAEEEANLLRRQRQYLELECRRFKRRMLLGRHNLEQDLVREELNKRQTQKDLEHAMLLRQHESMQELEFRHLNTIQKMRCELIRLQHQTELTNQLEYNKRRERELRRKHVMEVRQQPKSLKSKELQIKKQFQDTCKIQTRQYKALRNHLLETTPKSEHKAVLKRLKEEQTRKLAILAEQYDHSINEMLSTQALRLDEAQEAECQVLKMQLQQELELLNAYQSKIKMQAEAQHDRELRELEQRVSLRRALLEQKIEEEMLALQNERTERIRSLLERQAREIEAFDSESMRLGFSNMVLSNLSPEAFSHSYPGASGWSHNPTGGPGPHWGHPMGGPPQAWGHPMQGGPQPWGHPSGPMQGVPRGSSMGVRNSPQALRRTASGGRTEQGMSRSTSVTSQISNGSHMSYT
Description: Selectivity interaction (Ambit KINOMEscan and KiNATiv profiling in Jurkat cells) EUB0000090b TAOK1. The class given is cell-based. Particulars: at 1 µM.

The target in experiment [2] is T2, Ribosomal protein S6 kinase delta-1 (Homo sapiens) (UniProt Q96S38).
T2 sequence (whole entry): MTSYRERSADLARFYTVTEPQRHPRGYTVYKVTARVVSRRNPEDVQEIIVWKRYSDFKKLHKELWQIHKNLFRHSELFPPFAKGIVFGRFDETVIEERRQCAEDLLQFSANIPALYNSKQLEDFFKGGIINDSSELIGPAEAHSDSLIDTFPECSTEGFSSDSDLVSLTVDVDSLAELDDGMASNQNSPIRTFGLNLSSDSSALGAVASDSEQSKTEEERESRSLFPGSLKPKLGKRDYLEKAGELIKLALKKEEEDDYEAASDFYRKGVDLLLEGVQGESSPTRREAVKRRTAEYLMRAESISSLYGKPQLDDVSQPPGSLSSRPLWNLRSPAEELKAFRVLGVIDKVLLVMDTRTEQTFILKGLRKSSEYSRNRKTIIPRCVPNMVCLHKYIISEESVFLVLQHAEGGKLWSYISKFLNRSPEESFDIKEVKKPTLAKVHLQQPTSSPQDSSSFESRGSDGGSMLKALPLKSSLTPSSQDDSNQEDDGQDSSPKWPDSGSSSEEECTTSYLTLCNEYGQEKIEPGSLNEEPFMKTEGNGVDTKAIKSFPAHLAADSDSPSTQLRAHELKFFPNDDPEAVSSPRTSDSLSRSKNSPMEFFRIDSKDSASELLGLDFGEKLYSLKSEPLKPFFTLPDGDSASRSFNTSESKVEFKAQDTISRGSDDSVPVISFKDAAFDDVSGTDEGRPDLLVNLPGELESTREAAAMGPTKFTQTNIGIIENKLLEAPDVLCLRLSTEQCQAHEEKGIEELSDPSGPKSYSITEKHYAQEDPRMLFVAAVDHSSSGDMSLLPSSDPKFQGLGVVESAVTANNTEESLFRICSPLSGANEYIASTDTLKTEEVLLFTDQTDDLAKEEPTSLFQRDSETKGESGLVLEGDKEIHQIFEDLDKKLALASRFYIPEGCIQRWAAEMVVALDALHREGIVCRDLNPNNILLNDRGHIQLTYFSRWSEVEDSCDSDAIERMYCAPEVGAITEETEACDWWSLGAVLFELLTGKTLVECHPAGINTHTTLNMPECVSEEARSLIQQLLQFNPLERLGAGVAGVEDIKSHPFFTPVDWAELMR
Description: Selectivity interaction (ActivX KiNativ screen (kinase selectivity in THP-1 cell lysates)) EUB0000639a RPS6KC1. As to conditions: lysate. The class given is subcellular.

The target in experiment [3] is Activin receptor type-1-like (Homo sapiens) (UniProt P37023). Description: Selectivity interaction (KinomeScan (DiscoverX)) EUB0000595a ACVRL1. Particulars: at 10 µM.
Activin receptor type-1-like (Homo sapiens), sequence (P37023 whole entry): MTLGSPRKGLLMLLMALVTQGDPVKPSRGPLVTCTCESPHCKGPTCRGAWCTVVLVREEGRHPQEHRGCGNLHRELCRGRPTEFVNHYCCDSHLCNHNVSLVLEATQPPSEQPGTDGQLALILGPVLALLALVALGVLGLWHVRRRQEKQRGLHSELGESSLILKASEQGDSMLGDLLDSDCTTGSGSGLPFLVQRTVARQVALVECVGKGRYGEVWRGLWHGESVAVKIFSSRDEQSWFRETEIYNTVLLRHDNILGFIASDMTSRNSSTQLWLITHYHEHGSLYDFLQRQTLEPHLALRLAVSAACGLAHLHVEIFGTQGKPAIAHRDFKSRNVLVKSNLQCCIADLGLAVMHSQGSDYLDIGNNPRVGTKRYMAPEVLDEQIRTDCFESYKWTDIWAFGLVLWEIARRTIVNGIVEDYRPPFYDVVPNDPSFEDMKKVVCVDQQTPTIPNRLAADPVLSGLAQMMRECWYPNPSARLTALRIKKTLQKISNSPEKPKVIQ
For experiment [4], the target named is T3, Mitogen-activated protein kinase 13 (Homo sapiens) (UniProt O15264).
T3 sequence (whole entry): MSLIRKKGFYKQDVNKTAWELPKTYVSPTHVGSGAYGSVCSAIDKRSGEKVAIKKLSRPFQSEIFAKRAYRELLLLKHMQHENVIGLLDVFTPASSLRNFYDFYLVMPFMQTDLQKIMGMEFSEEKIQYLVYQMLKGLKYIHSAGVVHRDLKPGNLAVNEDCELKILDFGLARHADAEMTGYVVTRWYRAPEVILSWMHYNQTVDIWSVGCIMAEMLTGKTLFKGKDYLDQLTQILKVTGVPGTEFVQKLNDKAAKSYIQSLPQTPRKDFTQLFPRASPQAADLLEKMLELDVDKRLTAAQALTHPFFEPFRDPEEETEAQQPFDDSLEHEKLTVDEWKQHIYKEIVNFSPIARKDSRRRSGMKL
The experiment is described as follows: Selectivity interaction (Kinase panel (literature)) EUB0001199aCl MAPK13. As to conditions: at 1 µM.

`CN(C)C/C=C/C(=O)Nc1ccc(C(=O)N2CCCC(Nc3ncc(Cl)c(-c4c[nH]c5ccccc45)n3)C2)cc1` (stereo not drawn) registered a % of control in experiment [1] of 93%.
On to `CC[C@@H]1[C@H](F)C(=O)N[C@@H]1COc1nccc2cc(C(N)=O)c(OC)cc12` [ZIMLOVISERTIB], for which the % of inhibition in experiment [2] (at 0.01 µM) is 11.8%; in experiment [2] (at 0.04 µM), -10.9%; in experiment [2] (at 0.2 µM) it was -1.8%; in experiment [2] (at 1 µM) it was 9.6%; in experiment [2] (at 5 µM), 8.3%.
Take `COCC(=O)NC/C=C/c1ccc2ncnc(Nc3ccc(Oc4ccc(C)nc4)c(C)c3)c2c1` [CP-724714]: the % of control in experiment [3] is 84%.
Turning to `CN1Cc2nccc(-c3cn(C)nc3-c3ccc(F)cc3)c2C1=O`, in experiment [4], the % of inhibition is 10%.
